Data on one compound can be found in ChEMBL document CHEMBL1159133, “A cembranolide diterpene farnesyl protein transferase inhibitor from the marine soft coral Lobophytum cristagalli” (Bioorg Med Chem Lett, 1996).

Test [1] has as its target T1, Protein farnesyltransferase (Homo sapiens, UniProt P49354+P49356). Description: Kinetic parameter for inhibition of farnesyl protein transferase. Format: protein-complex assay.
Test [2] addresses T1, Protein farnesyltransferase. The test can be described thus: Percent inhibition of H-Ras processing in COS cells at 5.3 uM. Type of test: cell-based.
For test [3] the target is unchanged. Description: Inhibition of recombinant human farnesyl protein transferase. Format: protein-complex assay.
Test [4] concerns the target Geranylgeranyl transferase type I (Homo sapiens, UniProt P49354+P53609). The test can be described thus: Inhibitory activity against recombinant human Geranylgeranyl transferase type I. Type of test: protein-complex assay.

SMILES strings stand for the structures.

In the case of `C=C1C(=O)O[C@H]2[C@H]1[C@@H](OC(C)=O)C/C(C)=C/CC/C(C)=C/CC[C@@]1(C)O[C@H]21`, the affinity in test [1] corresponds to a Ki of 170 nM. The same compound showed an inhibition in test [2] of 26%. The IC50 is 150 nM in test [3] and 5300 nM in test [4].
